{
  "source": "paper PMC6435784",
  "about": "“Gut Microbiota-Based Pharmacokinetics and the Antidepressant Mechanism of Paeoniflorin” (Frontiers in Pharmacology, 2019)",
  "key": {"depressed rats": {"tested_on": "depressed rats", "assay": "Chronic unpredictable stress depression model, sucrose preference test", "assay_type": "in vivo, rat", "settings": "after 2 weeks of drug treatment, compared with model group, n = 8", "procedure": "Forty rats were randomly divided into the following groups (n = 8): the normal control group, the model control group, the fluoxetine group (10 mg/kg), the paeoniflorin low-dose group (10 mg/kg), and the paeoniflorin high-dose group (20 mg/kg). Except for the blank control group, the groups were randomly exposed to two stressors, including behavioral constraints, ice water swimming, electric shock, cold stimulation, clip tail, wet bedding, light/dark reversed, shaking, foods and water deprivation, continuously for 8 weeks to establish a chronic unpredictable stress model. The sucrose preference test was performed at 0 and 14 days after administration."}, "[1]": {"assay": "Excretion of paeoniflorin in rats (urine, feces, bile)", "assay_type": "in vivo, rat", "settings": "for Excretion rate of paeoniflorin (%), Urine (%), cumulative / Excretion rate of paeoniflorin (%), Feces (%), cumulative: total excretion, oral 20 mg/kg", "procedure": "Then, urine samples and feces samples were collected at 0, 6, 12, 24, 48, 72, and 96 h."}, "[2]": {"assay": "Excretion of paeoniflorin in rats (urine, feces, bile)", "assay_type": "in vivo, rat", "settings": "normal rats, paeoniflorin 20 mg/kg, excreted form = labelled substance, n = 6"}, "[3]": {"assay": "Metabolism of paeoniflorin in the homogenate of the liver tissue in vitro", "assay_type": "in vitro ADME, rat", "settings": "100 μg/mL paeoniflorin, 37°C, 1 h, compared with intestinal bacteria incubation system, ***P < 0.001", "procedure": "Fresh rat liver tissue was cut into small pieces, 0.05 M Tris-HC1 buffer (1:2, pH 7.4) was added. The mixture was homogenized in a mixer and paeoniflorin was added to the liver homogenate at a final concentration of 100 μg/mL. Then, the mixture was incubated at 37°C for 1 h. The above reactions were terminated by the addition of 0.4 mL acetonitrile (1:2). Proteins were precipitated by centrifugation at 10,625 g for 5 min, and 10 μL supernatant was injected into the UPLC system for quantification."}, "[4]": {"assay": "Pharmacokinetics of paeoniflorin in normal SD rats (plasma, LC-MS/MS)", "assay_type": "in vivo, rat", "settings": "for MRT last: read-out: MRT (0-t); for MRT inf: read-out: MRT (0-∞); for half-life: read-out: t1/2z (converted)", "procedure": "Chromatography separation was performed using an XSS T3 column (3.5 μm, 2.1 mm × 100 mm, Waters, Milford, MA, United States) with the column temperature maintained at 40°C at a flow rate of 0.4 mL/min. […] The gradient was as follows: 25% eluent B for 2 min; 25–85% B from 2 to 4 min; 85–25% B from 4 to 5 min and held at 25% from 5 to 7 min. The autosampler temperature was set to 4°C. Mass spectrometry was carried out using multiple reaction monitoring mode (MRM). […] The nebulizing gas flow rate was 2.8 L/min, the drying gas flow rate was 10 L/min, and the heating gas flow rate was 10 L/min. […] Plasma samples were immediately stored at 4°C until analysis. The method validation assays were carried out in terms of specificity, linearity, sensitivity, accuracy, precisions, recovery, matrix effect and stability. […] Statistical analyses were conducted using two-way ANOVA and Student’s t-test with GraphPad Prism Version 5 (GraphPad Software, La Jolla, CA, United States). The data are expressed as the means ± standard deviation. […] DAS 3.0 was used to calculate the plasma pharmacokinetic parameters."}, "[5]": {"assay": "Metabolism of paeoniflorin in liver microsome in vitro", "assay_type": "in vitro ADME", "settings": "5 μM paeoniflorin, 1 mg/mL protein, NADPH, 37°C, incubation 2 h", "procedure": "Samples were incubated at 37°C in a shaker. The incubation mixtures were 0.2 mL of the final volume and the protein concentration was 1 mg/mL. […] The reaction was initiated by the addition of NADPH after a 3 min preincubation at 37°C. The above reactions were terminated by the addition of 0.4 mL acetonitrile (1:2). Proteins were precipitated by centrifugation at 10,625 g for 5 min, and 10 μL supernatant was injected into the UPLC system for quantification."}, "gut microbiota": {"tested_on": "gut microbiota", "assay": "Analysis of microbial diversity by 16S rRNA gene sequencing", "assay_type": "in vivo, rat", "settings": "depression model rats, oral 20 mg/kg, 2 weeks of treatment", "procedure": "Rat feces of the chronic unpredictable depression model group were collected after 2 weeks of treatment. Three groups, including the normal control group, the model control group, the paeoniflorin treatment group (oral, 20 mg/kg) were selected. Barcoded pyro sequencing analysis was performed on the V3 and V4 regions by 16S rRNA gene sequencing."}, "[6]": {"assay": "Brain distribution of paeoniflorin and benzoic acid in rats", "assay_type": "in vivo, rat", "settings": "at 2 h after oral administration of paeoniflorin 20 mg/kg"}, "[7]": {"settings": "normal rats, oral paeoniflorin 20 mg/kg, excreted form = labelled substance, n = 6"}, "[8]": {"settings": "SD, rat, plasma, intravenous 2 mg/kg, normal rats, n = 5"}, "[9]": {"settings": "SD, rat, plasma, normal rats, oral 20 mg/kg, n = 6"}, "[10]": {"settings": "SD, rat, normal rats, oral paeoniflorin 20 mg/kg, plasma analyte = labelled substance, n = 6"}, "[11]": {"settings": "normal rats, oral 20 mg/kg, n = 6"}, "[12]": {"settings": "normal rats, oral paeoniflorin 20 mg/kg, plasma analyte = labelled substance, n = 6"}},
  "note": "Where two headings read alike, the source gives them in different places.",
  "data": [
    {"molecule": "C[C@@]12C[C@@]3(O)O[C@@H](O1)[C@]1(COC(=O)c4ccccc4)[C@H]3C[C@@]12O[C@@H]1O[C@H](CO)[C@@H](O)[C@H](O)[C@H]1O", "note": "[Paeoniflorin]", "values": [
      {"measurement": "sucrose preference value", "setting": "depressed rats; 10 mg/kg", "value": "higher than that in the model group"},
      {"measurement": "sucrose preference value", "setting": "depressed rats; 20 mg/kg", "value": "higher than that in the model group"},
      {"measurement": "96-h cumulative excretion in feces", "setting": "[1]; [7]", "value": 0.016, "unit": "%"},
      {"measurement": "96-h cumulative excretion in urine", "setting": "[1]; [7]", "value": 1.66, "unit": "%"},
      {"measurement": "Excretion rate of paeoniflorin (%), Urine (%), cumulative", "setting": "[1]; time row 0–6 h", "value": "0.6821 ± 0.3209", "unit": "%"},
      {"measurement": "Excretion rate of paeoniflorin (%), Feces (%), cumulative", "setting": "[1]; time row 6–12 h", "value": "0.0890 ± 0.0568", "unit": "%"},
      {"measurement": "Excretion rate of paeoniflorin (%), Urine (%), cumulative", "setting": "[1]; time row 6–12 h", "value": "1.2565 ± 0.9639", "unit": "%"},
      {"measurement": "Excretion rate of paeoniflorin (%), Feces (%), cumulative", "setting": "[1]; time row 12–24 h", "value": "0.1247 ± 0.0763", "unit": "%"},
      {"measurement": "Excretion rate of paeoniflorin (%), Urine (%), cumulative", "setting": "[1]; time row 12–24 h", "value": "11.4988 ± 6.4969", "unit": "%"},
      {"measurement": "Excretion rate of paeoniflorin (%), Feces (%), cumulative", "setting": "[1]; time row 24–48 h", "value": "0.1479 ± 0.0932", "unit": "%"},
      {"measurement": "Excretion rate of paeoniflorin (%), Urine (%), cumulative", "setting": "[1]; time row 24–48 h", "value": "28.6890 ± 13.81", "unit": "%"},
      {"measurement": "Excretion rate of paeoniflorin (%), Feces (%), cumulative", "setting": "[1]; time row 48–72 h", "value": "0.1630 ± 0.0948", "unit": "%"},
      {"measurement": "Excretion rate of paeoniflorin (%), Urine (%), cumulative", "setting": "[1]; time row 48–72 h", "value": "42.8196 ± 19.2297", "unit": "%"},
      {"measurement": "Excretion rate of paeoniflorin (%), Feces (%), cumulative", "setting": "[1]; time row 72–96 h", "value": "0.1805 ± 0.1055", "unit": "%"},
      {"measurement": "Excretion rate of paeoniflorin (%), Urine (%), cumulative", "setting": "[1]; time row 72–96 h", "value": "43.7953 ± 19.5441", "unit": "%"},
      {"measurement": "cumulative excretion rate in bile for 60 h", "setting": "[2]", "value": 0.02, "unit": "%"},
      {"measurement": "production of benzoic acid in liver tissue homogenate", "setting": "[3]", "value": "significantly lower than that in the intestinal bacteria incubation system"},
      {"measurement": "AUC(0-t)", "setting": "[4]; SD, rat, plasma, iv, 2 mg/kg, intravenous 2 mg/kg, normal rats, n = 5, read-out: AUC (0-t)", "value": "1060 ± 326", "unit": "ng·h/mL"},
      {"measurement": "bioavailability", "setting": "[4]; SD, rat, plasma, oral, rats, oral 20 mg/kg vs intravenous 2 mg/kg, F = AUCT·Div/AUCiv·DT × 100%, read-out: absolute (oral) bioavailability", "value": 2.32, "unit": "%"},
      {"measurement": "AUC(0-t)", "setting": "[4]; SD, rat, plasma, po, 20 mg/kg, normal rats, oral paeoniflorin 20 mg/kg, plasma analyte = labelled substance, Figures 2C, 3B, 3C, read-out: AUC(0-t) (unit inferred)", "value": 245, "unit": "ng·h/mL"},
      {"measurement": "Cmax", "setting": "[4]; SD, rat, plasma, po, 20 mg/kg, normal rats, oral paeoniflorin 20 mg/kg, plasma analyte = labelled substance, Figures 2C, 3B, 3C, read-out: Cmax (unit inferred)", "value": 119, "unit": "ng/mL"},
      {"measurement": "AUC(0-t)", "setting": "[4]; SD, rat, plasma, po, 20 mg/kg, normal rats, oral paeoniflorin 20 mg/kg, plasma analyte = labelled substance, n = 6, read-out: AUC (0-t)", "value": "245 ± 72.8", "unit": "ng·h/mL"},
      {"measurement": "Cmax", "setting": "[4]; SD, rat, plasma, po, 20 mg/kg, normal rats, oral paeoniflorin 20 mg/kg, plasma analyte = labelled substance, n = 6, read-out: Cmax", "value": "119 ± 54.3", "unit": "ng/mL"},
      {"measurement": "AUC(0-inf)", "setting": "[4]; [8]", "value": "1070 ± 325", "unit": "ng·h/mL"},
      {"measurement": "clearance", "setting": "[4]; SD, rat, plasma, intravenous 2 mg/kg, normal rats, n = 5, read-out: CLz (converted)", "value": 33.3, "unit": "mL/min/kg"},
      {"measurement": "MRT last", "setting": "[4]; [8]", "value": "0.903 ± 0.122", "unit": "h"},
      {"measurement": "MRT inf", "setting": "[4]; [8]", "value": "0.981 ± 0.07", "unit": "h"},
      {"measurement": "Vd", "setting": "[4]; SD, rat, plasma, intravenous 2 mg/kg, normal rats, n = 5, read-out: Vz", "value": "6.09 ± 3.11", "unit": "L/kg"},
      {"measurement": "half-life", "setting": "[4]; [8]", "value": "2.06 ± 0.771", "unit": "h"},
      {"measurement": "MRT last", "setting": "[4]; [9]", "value": "2 ± 0.353", "unit": "h"},
      {"measurement": "MRT inf", "setting": "[4]; [9]", "value": "2.04 ± 0.368", "unit": "h"},
      {"measurement": "AUC(0-inf)", "setting": "[4]; [10]", "value": "246 ± 72.8", "unit": "ng·h/mL"},
      {"measurement": "Tmax", "setting": "[4]; [10]", "value": "0.458 ± 0.195", "unit": "h"},
      {"measurement": "half-life", "setting": "[4]; [10]", "value": "1.3 ± 0.474", "unit": "h"},
      {"measurement": "CLz", "setting": "[4]; [11]", "value": "1473 ± 483.58", "unit": "mL/min/kg"},
      {"measurement": "Vz", "setting": "[4]; [11]", "value": "161.261 ± 82.928", "unit": "L/kg"},
      {"measurement": "AUC(0-t)", "setting": "[4]; [12]", "value": "245.29 ± 72.811", "unit": "ng·h/mL"},
      {"measurement": "Cmax", "setting": "[4]; [12]", "value": "119.36 ± 54.3", "unit": "ng/mL"},
      {"measurement": "absolute (oral) bioavailability", "setting": "[4]; rats, oral 20 mg/kg vs intravenous 2 mg/kg, F = AUCT·Div/AUCiv·DT × 100%", "value": 2.3, "unit": "%"},
      {"measurement": "benzoic acid production in the liver microsome system", "setting": "[5]", "value": "no benzoic acid produced"},
      {"measurement": "abundance of Facklamia, Jeotgalicoccus, Ruminiclostridium_5 and Eubacterium_coprostanoligenes_group in feces", "setting": "gut microbiota", "value": "decreased"},
      {"measurement": "abundance of Lactobacillus, Lachnospira, Eubacterium_ruminantium_group and Roseburia in feces", "setting": "gut microbiota", "value": "increased"},
      {"measurement": "detection in SD rat brains", "setting": "[6]", "value": "not detected"}
    ]}
  ]
}
